Experimental data reported in patent EP3816157A1 (Guangxi Normal University, priority 2019, dated 2021).

Legend:
Assay in all cases: MTT inhibition test against cell growth
MGC-803 = format: cell-based, human; conditions: gastric cancer cell MGC-803, 48 hours
Protocol: (§1) The test selected human ovarian cancer cell SK-OV-3, liver cancer cell Hep-G2, gastric cancer cell MGC-803, bladder cancer cell T-24, cervical cancer cell HeLa-229, human large cell lung cancer cell NCI-H460 and human normal liver cell HL-7702, and all the used cell lines were placed in an RPMI-1640 or high-sugar DMEM culture solution containing 1% penicillin-streptomycin and 10% newborn fetal calf serum and cultured in an incubator at 37 °C and 5% CO2. The growths of the cells were observed discontinuously by an inverted microscope, and the culture solution was replaced periodically or digestion subcultured with 0.25% trypsin according to actual situations. […] The compounds each were formulated into 20 µmol/L of a solution, DMSO is used as a cosolvent with a final concentration of ≤1%; at the concentration, the inhibition degrees of the compounds against the growth of tumor cells were tested. […] After the individual tumor cells were attached to the wall, the working solutions of the tested compounds were added, and each compound is provided with quintuple holes in parallel whilst a corresponding control group (with a culture solution only containing tumor cells and the same equivalent of DMSO but without the tested compounds) is provided. […] The following equitation was utilized: […]

HepG-2 = format: cell-based, human
Protocol: as §1

HeLa-229 = format: cell-based, human; conditions: cervical cancer cell HeLa-229, 48 hours
Protocol: as §1

T-24 = format: cell-based, human; conditions: bladder cancer cell T-24, 48 hours
Protocol: as §1

NCI-H460 = format: cell-based; conditions: human large cell lung cancer cell NCI-H460, 48 hours
Protocol: as §1

HL-7702 = format: cell-based
Protocol: as §1

[1] = Homo sapiens, HepG2, liver cancer cell HepG-2, 48 hours
[2] = L02, human normal liver cell HL-7702, 48 hours

Row | IC50 (MGC-803; Homo sapiens) | IC50 (HeLa-229; Homo sapiens) | IC50 (NCI-H460) | SMILES | IC50 (HepG-2; [1]) | IC50 (T-24; Homo sapiens) | IC50 (HL-7702; [2]) | IC50 (MGC-803) | IC50 (HepG-2; liver cancer cell HepG-2, 48 hours) | IC50 (HeLa-229) | IC50 (T-24) | IC50 (HL-7702; human normal liver cell HL-7702, 48 hours)
1 | 9.48 ± 0.68 µM | 10.5 ± 1.52 µM | 14.5 ± 1.42 µM | O=S(=O)(O)c1ccc(N=Cc2c3ccccc3c(C=NNC3=NCCN3)c3ccccc23)cc1 [9-benzenesulfonic acid-10-imidazolylanthrahydrazone] | 12.7 ± 1.56 µM | 10.7 ± 0.56 µM | 11.3 ± 0.71 µM |  |  |  |  | 
2 | 18.8 ± 0.5 µM | > 20 µM | 16.1 ± 1.4 µM | O=Cc1c2ccccc2c(C=NNC2=NCCN2)c2ccccc12 [9-formyl-10-imidazolylanthrahydrazone] | 15.1 ± 1.69 µM | 13.9 ± 1.46 µM | 16.4 ± 2.78 µM |  |  |  |  | 

Row | SMILES | IC50 (MGC-803; Homo sapiens) | IC50 (HeLa-229; Homo sapiens) | IC50 (NCI-H460) | IC50 (HepG-2; [1]) | IC50 (T-24; Homo sapiens) | IC50 (HL-7702; [2]) | IC50 (MGC-803) | IC50 (HepG-2; liver cancer cell HepG-2, 48 hours) | IC50 (HeLa-229) | IC50 (T-24) | IC50 (HL-7702; human normal liver cell HL-7702, 48 hours)
3 | N.N.[Cl][Pt][Cl] [cisplatin] |  |  | 18.3 ± 1.02 µM |  |  |  | 17.8 ± 2.5 µM | 18.6 ± 0.78 µM | 13.2 ± 2.74 µM | 14.8 ± 2.74 µM | 12.7 ± 1.27 µM
